According to ChEMBL document CHEMBL5365548, “Discovery of Pyrrolo[2,3-c]pyridines as Potent and Reversible LSD1 Inhibitors” (ACS Med Chem Lett, 2023):

Legend:
[1] = molecular target: Lysine-specific histone demethylase 1A (Homo sapiens, UniProt O60341); test: Inhibition of human recombinant LSD1 expressed in Escherichia coli using H3K4me2 peptide as substrate incubated for 60 mins by AlphaLISA assay
[2] = Microsomal stability in dog liver microsome assessed as half life measured upto 60 mins by LC-MS/MS analysis; type: ADME, Canis lupus familiaris; conditions: liver microsomes
[3] = Microsomal stability in mouse liver microsome assessed as half life measured upto 60 mins by LC-MS/MS analysis; type: ADME; conditions: liver microsomes
[4] = Microsomal stability in human liver microsome assessed as half life measured upto 60 mins by LC-MS/MS analysis; type: ADME; conditions: liver microsomes
[5] = Microsomal stability in rat liver microsome assessed as half life measured upto 60 mins by LC-MS/MS analysis; type: ADME; conditions: liver microsomes
[6] = tested on: NCI-H1417; test: Antiproliferative activity against human NCI-H1417 cells assessed as cell growth inhibition incubated for 10 days by WST-8 assay; type: functional, cell-based; conditions: NCI-H1417, 240 h
[7] = tested on: MV4-11; test: Antiproliferative activity against human MV4-11 cells assessed as cell growth inhibition incubated for 10 days by WST-8 assay; type: functional, cell-based; conditions: MV4-11, 240 h
[8] = tested on: MOLM-13; test: Antiproliferative activity against human MOLM-13 cells assessed as cell growth inhibition incubated for 7 days by WST-8 assay; type: functional, cell-based; conditions: MOLM-13, 168 h

CNC1CCC(Cn2ccc3c(-c4ccc(C#N)c(F)c4)c(-c4ccc5c(cnn5C)c4)ncc32)CC1 (stereo not drawn)
IC50 [1]: 0.229 µM

C=C(C)c1ccc(-c2ncc3c(ccn3CC3CCNCC3)c2-c2ccc(C#N)cc2)cc1
IC50 [1]: 0.0585 µM

COC(C)(C)c1ccc(-c2ncc3c(ccn3CC3CCNCC3)c2-c2ccc(C#N)cc2)cc1
IC50 [1]: 0.0165 µM

Cn1ncc2cc(-c3ncc4c(ccn4C[C@@H]4CCNC4)c3-c3ccc(C#N)c(F)c3)ccc21
half-life [2]: > 60 min
half-life [3]: > 60 min
half-life [4]: > 60 min
IC50 [1]: 0.0037 µM
half-life [5]: > 60 min

CC(C)c1ccc(-c2ncc3c(ccn3CC3CCNCC3)c2-c2ccc(C#N)cc2)cc1
IC50 [1]: 0.0461 µM

Cc1cc(-c2c(-c3ccc4c(cnn4C)c3)ncc3c2ccn3CC2CCNCC2)ccc1C#N
IC50 [1]: 0.156 µM

CN1CCOc2cc(-c3ncc4c(ccn4CC4CCNCC4)c3-c3ccc(C#N)cc3)ccc21
IC50 [6]: 0.0093 µM
IC50 [7]: 0.0029 µM
IC50 [8]: 0.17 µM
IC50 [1]: 0.0046 µM

Cn1ncc2cc(-c3ncc4c(ccn4CC4CCNCC4)c3-c3ccc(C#N)cc3F)ccc21
IC50 [1]: 0.0175 µM

Cc1ccc(-c2ncc3c(ccn3C[C@@H]3CCNC3)c2-c2ccc(C#N)cc2)cc1
IC50 [1]: 0.08 µM

Cn1ncc2cc(-c3ncc4c(ccn4Cc4cccnc4)c3-c3ccc(C#N)c(F)c3)ccc21
IC50 [1]: > 10 µM

N#Cc1ccc(-c2c(-c3ccc4[nH]ncc4c3)ncc3c2ccn3CC2CCNCC2)cc1
IC50 [1]: 0.0943 µM

COC(=O)Nc1ccc(-c2ncc3c(ccn3CC3CCNCC3)c2-c2ccc(C#N)cc2)cc1
IC50 [1]: 0.0538 µM

Cn1ncc2cc(-c3ncc4[nH]ccc4c3-c3ccc(C#N)cc3)ccc21
IC50 [1]: 3.71 µM

Cn1ncc2cc(-c3ncc4c(ccn4CCCCN)c3-c3ccc(C#N)cc3)ccc21
IC50 [1]: 0.0124 µM

N#Cc1ccc(-c2c(-c3ccc(N)cc3)ncc3c2ccn3CC2CCNCC2)cc1
IC50 [1]: 0.354 µM

Cn1ccc2cc(-c3ncc4c(ccn4CC4CCNCC4)c3-c3ccc(C#N)cc3)cnc21
IC50 [1]: 0.0051 µM

Cn1ncc2cc(-c3ncc4c(ccn4CC4CCNCC4)c3-c3ccc(C#N)cc3)ccc21
IC50 [6]: 0.011 µM
IC50 [7]: 0.0041 µM
IC50 [8]: 0.062 µM
IC50 [1]: 0.0129 µM

CCC1(Cn2ccc3c(-c4ccc(C#N)cc4)c(-c4ccc5c(cnn5C)c4)ncc32)CCNCC1
IC50 [1]: 0.121 µM

Cc1ccc(-c2ncc3c(ccn3CC3CCNCC3)c2-c2ccc(C#N)cc2)cc1C
IC50 [1]: 0.0243 µM

CC(C)(C)c1ccc(-c2ncc3c(ccn3CC3CCNCC3)c2-c2ccc(C#N)cc2)cc1
IC50 [1]: 0.0479 µM

CS(=O)(=O)c1ccc(-c2ncc3c(ccn3CC3CCNCC3)c2-c2ccc(C#N)cc2)cc1
IC50 [1]: 0.146 µM

Cc1ccc(-c2ncc(OC[C@@H]3CCNC3)cc2-c2ccc(C#N)cc2)cc1
IC50 [6]: 0.213 µM
IC50 [7]: 0.122 µM
IC50 [8]: 0.613 µM
IC50 [1]: 0.13 µM

Cn1cc(-c2ncc3c(ccn3CC3CCNCC3)c2-c2ccc(C#N)cc2)cn1
IC50 [1]: > 1 µM

Cn1ncc2cc(-c3ncc4c(ccn4CC4CCNCC4)c3-c3ccc(C(N)=O)cc3)ccc21
IC50 [1]: 6.25 µM

Cn1ncc2cc(-c3ncc4c(ccn4CC4(C)CCNCC4)c3-c3ccc(C#N)c(F)c3)ccc21
IC50 [6]: 0.0011 µM
IC50 [7]: 0.0006 µM
half-life [2]: > 60 min
IC50 [8]: 0.031 µM
half-life [3]: > 60 min
half-life [4]: > 60 min
IC50 [1]: 0.0031 µM
half-life [5]: > 60 min

Cc1ccc(-c2ncc3c(ccn3CC3CCNCC3)c2-c2ccc(C#N)cc2)cc1
IC50 [1]: 0.0345 µM

Cn1ncc2cc(-c3ncc4c(ccn4C[C@@H]4CCCNC4)c3-c3ccc(C#N)c(F)c3)ccc21
IC50 [1]: 0.0035 µM

Cn1ncc2cc(-c3ncc4c(ccn4Cc4c[nH]cn4)c3-c3ccc(C#N)c(F)c3)ccc21
IC50 [1]: > 10 µM

Cn1ncc2cc(-c3ncc4c(ccn4CC4(C)CCNCC4)c3-c3ccc(C#N)cc3)ccc21
IC50 [6]: 0.0057 µM
IC50 [7]: 0.0032 µM
IC50 [8]: 0.126 µM
IC50 [1]: 0.0043 µM

C/C(=N\NC(=O)c1cccc(S(=O)(=O)N2CCN(C)CC2)c1)c1cc(Cl)ccc1O [SECLIDEMSTAT]
IC50 [1]: 0.0262 µM

Cn1ncc2cc(-c3ncc4c(ccn4CC4CCNCC4)c3-c3ccc(C#N)c(F)c3)ccc21
IC50 [6]: 0.0073 µM
IC50 [7]: 0.0027 µM
half-life [2]: > 60 min
IC50 [8]: 0.316 µM
half-life [3]: > 60 min
half-life [4]: > 60 min
IC50 [1]: 0.0039 µM
half-life [5]: > 60 min

CC(C)(O)c1ccc(-c2ncc3c(ccn3CC3CCNCC3)c2-c2ccc(C#N)cc2)cc1
IC50 [1]: 0.0211 µM

Cn1ccc2cc(-c3ncc4c(ccn4CC4CCNCC4)c3-c3ccc(C#N)cc3)ccc21
IC50 [1]: 0.0065 µM

CNCCCn1ccc2c(-c3ccc(C#N)cc3)c(-c3ccc4c(cnn4C)c3)ncc21
IC50 [1]: 0.0428 µM

CN1CCOc2cc(-c3ncc4c(ccn4CC4CCNCC4)c3-c3ccc(C#N)c(F)c3)ccc21
IC50 [6]: 0.0027 µM
IC50 [7]: 0.0017 µM
half-life [2]: 37 min
IC50 [8]: 0.058 µM
half-life [3]: < 10 min
half-life [4]: < 10 min
IC50 [1]: 0.0043 µM
half-life [5]: 42 min

CN1CCOc2cc(-c3ncc4c(ccn4CC4(C)CCNCC4)c3-c3ccc(C#N)c(F)c3)ccc21
IC50 [6]: 0.0023 µM
IC50 [7]: 0.0007 µM
half-life [2]: 35 min
IC50 [8]: 0.182 µM
half-life [3]: < 10 min
half-life [4]: < 10 min
IC50 [1]: 0.0014 µM
half-life [5]: 36 min

Cc1cc(C#N)ccc1-c1c(-c2ccc3c(cnn3C)c2)ncc2c1ccn2CC1CCNCC1
IC50 [1]: 0.215 µM

CN(C)c1ccc(-c2ncc3c(ccn3CC3CCNCC3)c2-c2ccc(C#N)cc2)cc1
IC50 [1]: 0.0094 µM

Cn1cnc2cc(-c3ncc4c(ccn4CC4CCNCC4)c3-c3ccc(C#N)cc3)ccc21
IC50 [1]: 0.0154 µM

CN1CCOc2cc(-c3ncc4c(ccn4CC4(C)CCNCC4)c3-c3ccc(C#N)cc3)ccc21
IC50 [6]: 0.0037 µM
IC50 [7]: 0.0015 µM
IC50 [8]: 0.13 µM
IC50 [1]: 0.0013 µM

Cc1ccc(-c2ncc3c(ccn3CC3CCNCC3)c2-c2ccc(C#N)cc2)cn1
IC50 [1]: 0.0698 µM
